Values joined by “and” are separate entries in the source; they are usually repeats but may differ in a detail not shown here. Equal entries are not always repeated. Toxic doses and inconclusive results are not listed. Rule as the data show it: active = T/C of 150% or more; inactive = T/C below 125%.
System: L1210 leukemia ip in BDF1 mice, survival T/C
Assay: NCI In Vivo Anticancer Drug Screen. Data for tumor model L1210 Leukemia (intraperitoneal) in B6D2F1 (BDF1) mice
Settings: endpoint: mean survival time, higher = longer survival
Summary of the method: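 Each compound was tested against a transplantable tumor grown in mice. The endpoint was survival, with treated animals benchmarked against vehicle controls as a simple ratio.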

[1] = dose: 100.0 mg/kg/injection, schedule: Q01DX009 (ip), vehicle: saline with Tween-80
[2] = dose: 100.0 mg/kg/injection, schedule: Q04DX003 (ip), vehicle: Klucel (hydroxypropylcellulose) (HPC)
[3] = dose: 200.0 mg/kg/injection, schedule: Q01DX009 (ip), vehicle: saline with Tween-80
[4] = dose: 200.0 mg/kg/injection, schedule: Q04DX003 (ip), vehicle: Klucel (hydroxypropylcellulose) (HPC)
[5] = dose: 400.0 mg/kg/injection, schedule: Q01DX009 (ip), vehicle: saline with Tween-80
[6] = dose: 400.0 mg/kg/injection, schedule: Q04DX003 (ip), vehicle: Klucel (hydroxypropylcellulose) (HPC)
[7] = dose: 75.0 mg/kg/injection, schedule: Q01DX001 (ip), vehicle: saline
[8] = dose: 150.0 mg/kg/injection, schedule: Q01DX001 (ip), vehicle: saline
[9] = dose: 300.0 mg/kg/injection, schedule: Q01DX001 (ip), vehicle: saline
[10] = dose: 100.0 mg/kg/injection, schedule: Q01DX009 (ip), vehicle: Klucel (hydroxypropylcellulose) (HPC)
[11] = dose: 200.0 mg/kg/injection, schedule: Q01DX009 (ip), vehicle: Klucel (hydroxypropylcellulose) (HPC)
[12] = dose: 400.0 mg/kg/injection, schedule: Q01DX009 (ip), vehicle: Klucel (hydroxypropylcellulose) (HPC)
[13] = dose: 50.0 mg/kg/injection, schedule: Q01DX001 (ip), vehicle: saline
[14] = dose: 100.0 mg/kg/injection, schedule: Q01DX001 (ip), vehicle: saline
[15] = dose: 200.0 mg/kg/injection, schedule: Q01DX001 (ip), vehicle: saline
[16] = dose: 400.0 mg/kg/injection, schedule: Q01DX001 (ip), vehicle: saline
[17] = dose: 50.0 mg/kg/injection, schedule: Q01DX001 (ip), vehicle: carboxymethylcellulose (CMC)
[18] = dose: 100.0 mg/kg/injection, schedule: Q01DX001 (ip), vehicle: carboxymethylcellulose (CMC)
[19] = dose: 200.0 mg/kg/injection, schedule: Q01DX001 (ip), vehicle: carboxymethylcellulose (CMC)
[20] = dose: 100.0 mg/kg/injection, schedule: Q04DX002 (ip), vehicle: saline

Measured: T/C

O=C(O)CC(SC(CC(=O)O)C(F)(F)C(F)(F)C(F)(F)F)C(F)(F)C(F)(F)C(F)(F)F (centres undefined)
inactive: [1] 94 % of control | [2] 108 % of control | [3] 97 % of control | [4] 97 % of control | [5] 94 % of control | [6] 88 % of control

OCC1OC(n2cnc3c(SCc4ccccc4)nc(NO)nc32)C(O)C1O (centres undefined)
active: dose: 267.0 mg/kg/injection, schedule: Q01DX001 (ip), vehicle: saline with Tween-80 150 % of control

COc1cc2c3c(c1O)-c1c(ccc(OC)c1OC)CC3N(C)CC2 (centres undefined)
inactive: dose: 100.0 mg/kg/injection, schedule: Q01DX001 (ip), vehicle: saline with Tween-80 103 % of control | dose: 200.0 mg/kg/injection, schedule: Q01DX001 (ip), vehicle: saline with Tween-80 102 % of control | dose: 400.0 mg/kg/injection, schedule: Q01DX001 (ip), vehicle: saline with Tween-80 102 % of control

CCN(CC)Cc1ccc(N)cc1
inactive: dose: 12.5 mg/kg/injection, schedule: Q01DX009 (ip), vehicle: saline 100 % of control | dose: 25.0 mg/kg/injection, schedule: Q01DX009 (ip), vehicle: saline 110 % of control

NC1(C(=O)O)Cc2ccccc2C1
inactive: dose: 50.0 mg/kg/injection, schedule: Q01DX001 (ip), vehicle: olive oil, sesame oil, peanut oil 101 % of control | dose: 100.0 mg/kg/injection, schedule: Q01DX001 (ip), vehicle: olive oil, sesame oil, peanut oil 101 % of control | dose: 200.0 mg/kg/injection, schedule: Q01DX001 (ip), vehicle: olive oil, sesame oil, peanut oil 112 % of control | dose: 400.0 mg/kg/injection, schedule: Q01DX001 (ip), vehicle: olive oil, sesame oil, peanut oil 104 % of control

Cc1cc2c(cc1C)N(C(=O)CN1CCSCC1)CC(=O)N2
inactive: [7] 107 % of control | dose: 75.0 mg/kg/injection, schedule: Q04DX003 (ip), vehicle: saline 93 % of control | [8] 98 % of control | dose: 150.0 mg/kg/injection, schedule: Q04DX003 (ip), vehicle: saline 94 % of control | [9] 109 % of control | dose: 300.0 mg/kg/injection, schedule: Q04DX003 (ip), vehicle: saline 91 % of control

O=C(CN(Cc1ccccc1)Cc1ccccc1)c1ccccc1
inactive: dose: 100.0 mg/kg/injection, schedule: Q04DX003 (ip), vehicle: DMSO 103 % of control

CCOc1ccc(NC(=O)C(Br)C(Br)c2ccccc2)cc1 (centres undefined)
inactive: [10] 100 % of control | [11] 96 % of control | [12] 91 % of control

CC(O)(C(=O)O)c1ccccc1O (centres undefined)
inactive: [7] 98 % of control | [8] 96 % of control | [9] 93 % of control

OCC(O)C(O)C(O)C(O)C(c1ccc(F)cc1)c1ccc(F)cc1 (centres undefined)
inactive: [13] 98 % of control | [14] 106 % of control and 102 % of control | [15] 101 % of control | [16] 93 % of control

CCCN1CCN(CCO)CC1C (centres undefined)
inactive: [14] 98 % of control | [15] 101 % of control | [16] 98 % of control

O=C(O)C1(C(=O)O)CCC1c1ccccc1 (centres undefined)
inactive: [14] 94 % of control | [15] 113 % of control | [16] 102 % of control

CCCSCCSCCC
inactive: dose: 25.0 mg/kg/injection, schedule: Q04DX003 (ip), vehicle: saline with Tween-80 104 % of control | dose: 50.0 mg/kg/injection, schedule: Q04DX003 (ip), vehicle: saline with Tween-80 102 % of control | dose: 100.0 mg/kg/injection, schedule: Q04DX003 (ip), vehicle: saline with Tween-80 104 % of control and 90 % of control

N#CSCC(=O)c1ccc(Cl)cc1
inactive: [17] 91 % of control | [18] 100 % of control | [19] 100 % of control

COC(=O)c1ccccc1NC(=O)Nc1ccccc1F
inactive: dose: 50.0 mg/kg/injection, schedule: Q01DX009 (ip), vehicle: Klucel (hydroxypropylcellulose) (HPC) 90 % of control | [10] 96 % of control | [11] 93 % of control

CNCC1OC(n2cc(C)c(=O)[nH]c2=O)CC1O (centres undefined)
inactive: dose: 25.0 mg/kg/injection, schedule: Q04DX002 (ip), vehicle: saline 108 % of control | dose: 50.0 mg/kg/injection, schedule: Q04DX002 (ip), vehicle: saline 115 % of control | [20] 97 % of control

Cc1sc(=S)n(CC(=O)O)c1C
inactive: [1] 93 % of control | [3] 93 % of control | [5] 92 % of control

COc1ccc(CN2CCCN(Cc3ccc(OC)cc3OC)C2c2ccc(OC)cc2OC)c(OC)c1
inactive: [17] 93 % of control | [18] 104 % of control | [19] 93 % of control | dose: 400.0 mg/kg/injection, schedule: Q01DX001 (ip), vehicle: carboxymethylcellulose (CMC) 98 % of control

CCOc1cc(/C=N\N=C\c2ccc(O)c(OCC)c2)ccc1O
inactive: [10] 93 % of control | [11] 94 % of control | [12] 88 % of control

CCOC(=O)C1(C)C(=O)CC2c3nc4ccccc4cc3CN2C1=O (centres undefined)
inactive: [10] 109 % of control | [2] 107 % of control | [11] 113 % of control | [4] 100 % of control | [12] 92 % of control | [6] 97 % of control

NC(=O)Nc1cc(NC(N)=O)cc(N(CCO)CCO)c1
inactive: dose: 100.0 mg/kg/injection, schedule: Q01DX009 (ip), vehicle: water 97 % of control | dose: 100.0 mg/kg/injection, schedule: Q04DX003 (ip), vehicle: water 102 % of control | dose: 200.0 mg/kg/injection, schedule: Q01DX009 (ip), vehicle: water 97 % of control | dose: 200.0 mg/kg/injection, schedule: Q04DX003 (ip), vehicle: water 102 % of control | dose: 400.0 mg/kg/injection, schedule: Q01DX009 (ip), vehicle: water 103 % of control | dose: 400.0 mg/kg/injection, schedule: Q04DX003 (ip), vehicle: water 104 % of control

COC(=O)c1[nH]cnc1/N=N/N(C)C.[Cl][Cu][Cl]
inactive: dose: 9.0 mg/kg/injection, schedule: Q01DX009 (ip), vehicle: saline 106 % of control and 115 % of control | dose: 13.0 mg/kg/injection, schedule: Q01DX009 (ip), vehicle: saline 107 % of control and 108 % of control | dose: 20.0 mg/kg/injection, schedule: Q01DX009 (ip), vehicle: saline 122 % of control

CCc1ccc(OS(=O)(=O)c2ccccc2[N+](=O)[O-])cc1
inactive: [1] 96 % of control | [2] 100 % of control | [3] 114 % of control | [4] 100 % of control | [5] 103 % of control | [6] 95 % of control

CC1CCNC(C(C)C)CC1 (centres undefined)
inactive: [20] 96 % of control | dose: 200.0 mg/kg/injection, schedule: Q04DX002 (ip), vehicle: saline 115 % of control

CCOC(=O)c1ccc(C)[n+]([O-])c1
inactive: [13] 96 % of control | [14] 98 % of control | [15] 100 % of control | [16] 93 % of control

S=c1[nH]c2ccccc2o1
inactive: [1] 93 % of control | dose: 100.0 mg/kg/injection, schedule: Q04DX003 (ip), vehicle: other 101 % of control | [3] 100 % of control | dose: 200.0 mg/kg/injection, schedule: Q04DX003 (ip), vehicle: other 93 % of control | dose: 400.0 mg/kg/injection, schedule: Q04DX003 (ip), vehicle: other 96 % of control

O=NC1C(Cl)C2CC1C1COCC21 (centres undefined)
inactive: dose: 100.0 mg/kg/injection, schedule: Q01DX001 (ip), vehicle: Klucel (hydroxypropylcellulose) (HPC) 97 % of control | dose: 200.0 mg/kg/injection, schedule: Q01DX001 (ip), vehicle: Klucel (hydroxypropylcellulose) (HPC) 90 % of control | dose: 400.0 mg/kg/injection, schedule: Q01DX001 (ip), vehicle: Klucel (hydroxypropylcellulose) (HPC) 89 % of control

O=C(/C=C\c1ccccc1)/C=C/c1ccccc1
inactive: [10] 90 % of control | dose: 100.0 mg/kg/injection, schedule: Q01DX009 (sc), vehicle: olive oil, sesame oil, peanut oil 113 % of control | [2] 95 % of control | [11] 95 % of control | dose: 200.0 mg/kg/injection, schedule: Q01DX009 (sc), vehicle: olive oil, sesame oil, peanut oil 98 % of control | [4] 98 % of control | dose: 400.0 mg/kg/injection, schedule: Q01DX009 (sc), vehicle: olive oil, sesame oil, peanut oil 102 % of control | [6] 98 % of control
